Data on 17 molecules can be found in PMC3231940, “Disposition, metabolism and mass balance of [^14C]apremilast following oral administration” (Xenobiotica; the Fate of Foreign Compounds in Biological …, 2011).

Several values for one entry are separate records, joined by “and”; a condition that tells them apart may be missing. Equal entries are not always repeated. A value given as a limit tells only on which side of the number the result lay.

Data set [1] deals with PDE4 enzyme isolated from U937 human monocytic cells. The experiment in a line: PDE4 inhibition, cAMP hydrolysis assay. Format: biochemical. The conditions noted are these: for IC50: PDE4 from U937 cells, cAMP hydrolysis. How it is done: (§1) PDE4 enzyme was isolated from U937 human monocytic cells and used for testing inhibition in a cAMP hydrolysis assay as previously described ([Schafer et al. 2010]). For the TNF-α production assay, human peripheral blood mono-nuclear cells (PBMC) were isolated from buffy coat of normal donor blood units (Blood Center of New Jersey, East Orange, NJ) by density centrifugation over Ficoll Hypaque (Pharmacia, Piscataway, NJ). Cells were cultured in RPMI 1640 (Life Technologies, Grand Island, NY) supplemented with 5% AB^+ human serum (Gemini Bio-products, Woodland, CA), 2-mM L-glutamine, 100-U/mL penicillin and 100-μg/mL streptomycin (Life Technologies). PBMC (2×10^5 cells) were plated in 96-well flat-bottom Costar tissue culture plates (Corning, NY) in duplicate. Cells were stimulated with lipopolysaccharides (LPS) (from Salmonella abortus equi; Sigma cat.no. L-1887, St.Louis, MO) at a final concentration of 1 ng/mL in the absence or presence of compounds. The compounds were dissolved in DMSO (Sigma) and subsequent dilutions were done in culture medium immediately before use. The compounds were added to cells 1 h before LPS stimulation. The cells were incubated for 16-18 h at 37°C in 5% CO2, and super-natants were then collected, diluted with culture medium and assayed for TNF-α levels by enzyme-linked immunosorbent assay (ThermoFisher, Rockford, IL). Fifty percent inhibitory concentrations (IC50) for the PDE4 enzymatic and TNF-α assay were calculated by non-linear regression analysis using Prism 5.1 (GraphPad Software). Regression curves were sigmoidal dose response curves with maximum and minimum constrained to 100% and 0%, respectively.

Data set [2] is described as follows: Metabolite profiling by HPLC radiochromatography in plasma, urine and faeces. More on the design: key to Plasma (% AUC relative to TRA); share of circulating radioactivity / % of dose excreted, urine: ND: not detected; D: detected by MS, but at concentrations too low to accurately quantify by radiochromatography. The note with it: for Plasma (% AUC relative to TRA); share of circulating radioactivity: AUC0-t (unchanged drug or metabolite)/AUC0-48 (TRA) * 100%; for % of dose excreted, faeces: faeces collected up to 96-h post-dose; for % of dose excreted, urine: urine collected up to 48-h post-dose; for Share of the excreted radioactivity / excreted dose: urine plus faeces; for Tmax: male; for Plasma Cmax: plasma radioactivity concentrations and radiochromatography. The class given is in vivo, human. How it is done: Individual plasma samples collected from all subjects at 0.5, 1, 2.5, 8, 24, 36 and 48 h post-dose were analysed for metabolite profiling. A pooled sample (equal volume from 0.5,1,2.5,8 and 24 h) from subject 1 was also used for metabolite profiling. Three volumes of acetonitrile were added to each sample, followed by mixing and centrifu-gation. The supernatant was removed and the pellet was washed twice with acetonitrile. The combined superna-tants were evaporated to dryness under a stream of nitrogen. The residues were re-suspended in acetonitrile: 1% formic acid in water (1:1), assayed for extraction recovery and analysed for metabolite profiling.
For each subject, urine samples were pooled using an equal percentage by volume of the 0-4, 4-8, 8-12 and 12-24-h samples. The 24-48-h urine sample from each subject and a pool of the 0-168-h urine samples from subject 1 were also analysed for metabolite profiling. Samples were mixed and centrifuged prior to the supernatants being transferred to fresh tubes for metabolite profiling analysis.
Faecal homogenates for metabolite profiling were pooled using an equal percentage by weight to generate two pools (0-48 h and 48-96 h) for each subject. An additional pool (0-168 h) was prepared using the samples collected from subject 1. An aliquot (approximately 6 g) of each pool was extracted with three volumes of acetonitrile; samples were mixed and centrifuged. The supernatant was removed and the pellets were extracted twice with an additional 12 mL of acetonitrile each time. The combined supernatants were evaporated to dryness under a stream of nitrogen and the residue was re-suspended in a small volume (approximately 400 μL) of acetonitrile: 1% formic acid in water (1:1). Samples were assayed for extraction recovery prior to metabolite profiling.
HPLC analysis for metabolite profiling was performed using a Shimadzu LC-10ADVP (Shimadzu Corp., Columbia, MD) or a Waters 2695 Alliance Separation Module (Waters Corp., Milford, MA) with the autosampler set to an ambient temperature of approximately 22°C. ASPD-10A VPUV-Vis Detector or a Waters 996 Photodiode array detector set to 254 nm was used to detect UV absorbance. [^14C]Apremilast and metabolites were separated using a Phenomenex Luna C 18(2) column (150 × 4.6 mm, 3 μm; Phenomenex, Torrance, CA) equipped with a RP-18 guard column (15×3.2 mm, 7 μm) or using an ACE 3 C18 column (150 × 4.6 mm, 3 μm; Advanced Chromatography Technologies, Aberdeen, Scotland) equipped with an ACE 3 guard column (10×3mm, 3 μm). The mobile phases used were 0.4% formic acid in water; pH 3.2 with ammonium hydroxide (mobile phase A) and acetonitrile (mobile phase B). The column temperature was 30°C and the flow rate was 0.7mL/min. The linear gradient was delivered as follows: 0-5 min to 100% A; 5-20 min to 85% A; 20-30 min hold at 85% A; 30-50 min to 65% A; 50-60 min to 60% A; 60-70 min to 50% A; 70-75 min to 0% A; hold at 0% A until 80 min; return to initial conditions over 2 min.
Radioactivity profiles for excreta were determined by radiochromatography using liquid chromatography-accurate radioisotope counting stop-flow system (LC-ARC; AIM Research Company, Wilmington, DE). Radioactivity was detected using a β-Ram Radioflow detector (IN/US Systems, Brandon, FL) equipped with a 1300-μL liquid cell. Liquid scintillation cocktail and column eluate were mixed at a ratio of 2.5:1. Radioactive peaks were quantified using LC-ARC data handling software. Plasma radioactivity profiles were determined by collecting the column eluate into 96-well Deepwell LumaPlates at a rate of 0.25 min/fraction. The plates were dried and the radioactivity in each well determined using a PerkinElmer TopCount NXT Microplate Scintillation Counter. HPLC radiochromatograms were reconstructed using LC-ARC data handling software.
Pharmacokinetic data were generated by non-compartmental analysis of plasma or whole blood versus time profiles using WinNonlin (version 4.1, Enterprise Edition). […]

The subject of data set [3] is TNF-α production by human peripheral blood mononuclear cells. The experiment in a line: TNF-α production assay in LPS-stimulated PBMC. The class given is cell-based. The note with it: LPS 1 ng/mL, 16-18 h, ELISA. The method, then:
as §1

Where [4] appears, read: human, plasma, radiochromatography, single oral 20-mg dose, median and range.
[5] abbreviates: single oral 20-mg dose, mean ± SD.
The mark [6] stands for this setting: radiochromatography, single oral 20-mg dose, mean ± SD.

Take `CCOc1cc([C@@H](CS(C)(=O)=O)NC(=O)c2cccc(NC(C)=O)c2C(=O)O)ccc1OC` [M1/M2]: in data set [1], the IC50 came to 120 µM. Also, in data set [2], the “Plasma (% AUC relative to TRA); share of circulating radioactivity” value (from here on “Plasma (% AUC relative to TRA); share”) is “D”; the “% of dose excreted, faeces” value was 0.5 % of dose; the “% of dose excreted, urine” value is 0.9 % of dose. In data set [3], this molecule returned an IC50 of 77 µM.

`CCOc1cc([C@@H](CS(C)(=O)=O)N2C(=O)c3cccc(NC(C)=O)c3C2=O)ccc1O` [Metabolite M3, O-desmethyl apremilast]: the IC50 in data set [1] stood at 8.3 µM. Besides, in data set [2], the “Plasma (% AUC relative to TRA); share” value was “D”; the “% of dose excreted, faeces” value is 5 % of dose and 4.6 % of dose; the “% of dose excreted, urine” value is given as “D”; the “Share of the excreted radioactivity / excreted dose” value is on record as above 4%. The molecule further returned an IC50 in data set [3] of 5.6 µM.

Consider `CCOc1cc([C@@H](CS(C)(=O)=O)N2C(=O)c3cccc(N)c3C2=O)ccc1O` [Metabolite M4, N-deacetylated, O-desmethyl apremilast], for which the “% of dose excreted, faeces” value in data set [2] is 2.4 % of dose.

In the case of `COc1ccc([C@@H](CS(C)(=O)=O)N2C(=O)c3cccc(NC(C)=O)c3C2=O)cc1O` [Metabolite M5, O-desethyl apremilast], the IC50 in data set [1] worked out at 44 µM; in data set [3], 4.9 µM.

In data set [1], `CCOc1cc([C@@H](CS(C)(=O)=O)N2C(=O)c3cccc(N)c3C2=O)ccc1OC` [Metabolite M7, N-deacetyl apremilast] displayed an IC50 of 0.16 µM. Further, the “PDE4 and TNF-α inhibition activity compared with apremilast” value in data set [1] (both assays, in words) was “IC50 values similar to those of apremilast”. In data set [2], the “Plasma (% AUC relative to TRA); share” value is recorded as “D”; the “% of dose excreted, faeces” value was 0.1 % of dose; the “% of dose excreted, urine” value is “D”. Further, the “Concentration in circulation relative to apremilast” value in data set [2] (plasma) is listed as below 2%. Further, the IC50 in data set [3] was 0.13 µM.

Turning to `CCOc1cc([C@@H](CS(C)(=O)=O)NC(=O)c2cccc(NC(C)=O)c2C(=O)O)ccc1O` [Metabolite M9], in data set [2], the “% of dose excreted, faeces” value was 8 % of dose and 7.7 % of dose; the “Share of the excreted radioactivity / excreted dose” value is recorded as above 4%.

For the molecule `CCOc1cc([C@@H](CS(C)(=O)=O)N2C(=O)c3cccc(NC(=O)CO)c3C2=O)ccc1O` [Metabolite M10, acetamide hydroxylated, O-desmethyl apremilast], the “% of dose excreted, faeces” value in data set [2] is recorded as 1.3 % of dose.

Turning to `CCOc1cc([C@@H](CS(C)(=O)=O)N2C(=O)c3cccc(NC(C)=O)c3C2=O)ccc1O[C@@H]1O[C@H](C(=O)O)[C@@H](O)[C@H](O)[C@H]1O` [Metabolite M12, O-desmethyl apremilast glucuronide], in data set [1], the IC50 is above 100 µM. In data set [2], the “Plasma (% AUC relative to TRA); share” value was determined as 38.7%; the “% of dose excreted, urine” value was 34 % of dose and 33.7 % of dose; the “Share of the excreted radioactivity / excreted dose” value was determined as 34%. In data set [2] (listed as O-desmethyl apremilast glucuronide), the “Plasma (% AUC relative to TRA); share” value came out at 39%. Moreover, in data set [2] (human, plasma, radiochromatography, single oral 20-mg dose, mean ± SD, read-out: Plasma t½ (converted)), the half-life is 948 ± 234 min. In addition, the Tmax in data set [2] (setting [4]) came out at 2.5 h. Further, the “Plasma Cmax” value in data set [2] (setting [5]) was found to be 111±36 ngEq/mL. Further, in data set [2] (setting [6]), the “Plasma AUC0-t” value stood at 2124±331 ngEq*h/mL and the “Plasma AUC0-∞” value is reported as 2446±416 ngEq*h/mL. The molecule further returned an IC50 in data set [3] above 10 µM.

For the molecule `COc1ccc([C@@H](CS(C)(=O)=O)N2C(=O)c3cccc(NC(C)=O)c3C2=O)cc1OC1OC(C(=O)O)C(O)C(O)C1O` (stereo partly drawn) [Metabolite M13], in data set [2], the “Plasma (% AUC relative to TRA); share” value stood at 2.4% and the “% of dose excreted, urine” value is on record as 2.0 % of dose. The Tmax in data set [2] (setting [4]) is 2.5 h. The “Plasma Cmax” value in data set [2] (setting [5]) is listed as 7.5±6.8 ngEq/mL. Also, the “Plasma AUC0-t” value in data set [2] (setting [6]) amounted to 133±125 ngEq*h/mL.

Regarding `CCOc1cc([C@@H](CS(C)(=O)=O)NC(=O)c2cccc(NC(C)=O)c2C(=O)O)ccc1OC1OC(C(=O)O)C(O)C(O)C1O` (stereo partly drawn) [Metabolite M15], in data set [2], the “% of dose excreted, urine” value was 3.3 % of dose.

As for `CC(=O)Nc1cccc(C(=O)O)c1C(=O)O` [Metabolite M18, 3-acetamide-phthalic acid], the “% of dose excreted, faeces” value in data set [2] is 1.4 % of dose.

As to `CC(=O)Nc1cccc2c1C(=O)N([C@H](CS(C)(=O)=O)c1ccc(O)c(O)c1)C2=O` [Metabolite M19, O-desmethyl, O-desethyl apremilast], the “% of dose excreted, faeces” value in data set [2] is recorded as 0.8 % of dose.

With `CS(=O)(=O)C[C@H](c1ccc(O)c(O)c1)N1C(=O)c2cccc(N)c2C1=O` [Metabolite M20, N-deacetylated, O-desmethyl, O-desethyl apremilast], in data set [2], the “% of dose excreted, faeces” value is given as 0.5 % of dose.

Regarding `COc1ccc([C@@H](CS(C)(=O)=O)NC(=O)c2cccc(NC(C)=O)c2C(=O)O)cc1O` [Metabolite M22], in data set [2], the “% of dose excreted, faeces” value is 0.6 % of dose.

`O=C(CO)Nc1cccc(C(=O)O)c1C(=O)O` [Metabolite M23, hydroxy 3-acetamide-phthalic acid]: in data set [2], the “% of dose excreted, faeces” value is recorded as 3.0 % of dose.

In the case of “hydroxylated N-deacetylated apremilast [Metabolite M11]”, in data set [2], the “Plasma (% AUC relative to TRA); share” value is given as 2.5% and the “% of dose excreted, faeces” value is on record as 1.4 % of dose. Further, the “Plasma Cmax” value in data set [2] (setting [5]) is 20.2±7.6 ngEq/mL. In data set [2] (setting [6]), the “Plasma AUC0-t” value was determined as 139±89 ngEq*h/mL, the “Plasma AUC0-∞” value was 232±151 ngEq*h/mL and the “Plasma t½” value was 10.7 ± 10.2 h. The “Plasma Tmax” value in data set [2] (radiochromatography, single oral 20-mg dose, median and range) is 1.0(0.5-2.5) h.

As to “hydroxylated N-deacetylated, O-desmethyl apremilast [Metabolite M8]”, in data set [2], the “% of dose excreted, faeces” value is recorded as 1.0 % of dose.
